The test system of one data set is DCs. The procedure:
(§1) After ^89Zr-oxine complex labeling, DCs were stimulated with LPS (5 ng/ml) overnight. CD8 T cells labeled with ^89Zr-oxine complex were stimulated with plate coated anti-CD3 antibody (10 μg/ml) and anti-CD28 antibody (5 μg/ml) for 3 days, then transferred to an antibody-free culture supplemented with human IL-15 (3 nM).
(§2) CTLs, both labeled and unlabeled, were activated by plate coated anti-CD3 antibody (10 μg/ml) and anti-CD28 antibody (5 μg/ml) for 1.5 day and expression of CD3, CD8, CD44, CD25, CD69, INF-γ and IL-2 which was evaluated by flow cytometry. Bone marrow-derived DCs on day 6 of culture with or without ^89Zr-oxine complex labeling were stimulated with LPS (1 ng/ml) overnight and surface expression of CD11c, CD80, CD86, CD40, MHC class I and MHC class II was examined. In another experiment, ^89Zr-labeled DCs were stimulated with LPS in the presence of OVA overnight, transferred to Rag1KO mice expressing Ly5.2 (2 million cells) pre-injected with CMFDA labeled OT-1 CD8 T cells expressing Ly5.1. Peripheral blood and splenocytes were collected 3.5 days later and dilution of CMFDA in OT-1 T cells was analyzed using flow cytometry gated on Ly5.1+ CD8 T cells.

Data set [1] deals with BM cells. The procedure:
The surface expressions of CD117, sca-1 and lineage markers (CD3, NK1.1, Ly6G, CD2, CD5 and B220) on BM cells were examined before and after ^89Zr-oxine labeling (3.15 kBq/2×10^6) and analyzed by flow cytometry using a FACS Calibur flow cytometer (Becton Dickinson, San Jose, Calif.) and analyzed using FlowJo software (Tree Star, Inc., Ashland, Oreg.). BM cell differentiation capability was examined by culturing the ^89Zr-labeled and non-labeled cells with GM-CSF (20 ng/ml) and IL-15 (25 nM) for differentiation to DCs and NK/NK-T cells (n=3). On day 10, the cells were harvested, stained with anti-CD11c, CD86, and NK1.1 antibodies, and analyzed on flow cytometry. For the GM-CSF culture, cell associated-^89Zr activity and cell number were also examined.

The subject of data set [2] is BM cells. The method, then: BM cells were incubated with 11.0-55.5 kBq/10^6 cells of ^89Zr-oxine complex in PBS at 25:1 volume ratios for 20 minutes, washed twice in RPMI media and transferred to a new tube. […] To determine cell viability and retention of ^89Zr after the labeling, BM cells were labeled with 2 different radioactivity doses, 28.12 kBq/10^6 and 8.14 kBq/10^6 cells, and cultured with SCF, FLT3L and TPO (100 ng/ml each). The number of live cells was counted using 0.4% trypan blue dye (Life Technologies) at 0 h, 2 d, 4 d, and 7 d (n=3). At each time point, the cell suspension was spun to separate the supernatant and the cell pellet, and the radioactivity of both fractions was measured by a γ-counter (WIZARD^2 automatic gamma-counter, Perkin Elmer, Waltham, Mass.).
This is another data set of the same source.

Data set [3] concerns CTLs. The note with it: TCR stimulation. The method, then:
as §2
CTLs were TCR stimulated after the ^89Zr-oxine complex labeling.

Data set [4] has as its system CTLs. The note with it: TCR stimulation then withdrawal, vs non-labeled. The method, then: as §1
In another data set the target is CXCR4 (Mus musculus, UniProt P70658). The note with it: at 2 h; plerixafor 5 mg/kg i.v. 15 min before cell transfer. The method, then: A CXCR4 inhibitor, plerixafor (Adooq Bioscience, Irvine, Calif.), was used to interrogate the role of CXCR4 in BM cell migration (n=4). Mice received an i.v. injection of plerixafor (5 mg/kg) 15 min before and 1 day after the ^89Zr-oxine labeled BM cell transfer (331 kBq/2×10^7 cells). Another group of mice received concurrent i.v. injections of G-CSF (2.5 μg, n=4). Deferoxamine was injected intramuscularly 15 min before and 1, 2, 3 and 4 hr after the cell injection. Serial microPET/CT images were acquired.

Structures are written as SMILES. Read-outs that look alike come from different tables or passages of the source.

CXCR4, sequence (P70658 whole entry): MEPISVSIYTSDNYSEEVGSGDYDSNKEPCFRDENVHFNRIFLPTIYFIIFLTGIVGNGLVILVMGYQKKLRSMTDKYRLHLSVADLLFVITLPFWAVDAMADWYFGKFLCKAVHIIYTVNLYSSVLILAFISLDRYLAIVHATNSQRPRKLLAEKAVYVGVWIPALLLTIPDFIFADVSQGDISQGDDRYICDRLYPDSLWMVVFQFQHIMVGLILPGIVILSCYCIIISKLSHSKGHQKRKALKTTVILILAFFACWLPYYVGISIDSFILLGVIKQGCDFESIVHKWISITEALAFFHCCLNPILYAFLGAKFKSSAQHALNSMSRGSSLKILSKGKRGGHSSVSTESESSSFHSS

With `c1cnc2c([O][89Zr]([O]c3cccc4cccnc34)([O]c3cccc4cccnc34)[O]c3cccc4cccnc34)cccc2c1` [^89Zr-oxine complex], the “antigen presentation to OT-1 T cells in vivo” value in the data set on DCs (labeled DCs stimulated with LPS and OVA, injected into mice, flow cytometry 4 days after transfer) was “capable of presenting the antigen and inducing T cell activation and proliferation as well as non-labeled DCs”. The “expression of B7 molecules, CD80 and CD86, on DCs” value in the data set with DCs (prior to LPS activation) is “slightly increased expression”. Further, the “capacity to proliferate and differentiate” value in the data set on BM cells [1] (10 day culture with GM-CSF or IL-15) was “retained the capacity to proliferate and differentiate normally into mature cells”. In the data set with BM cells [1] (BM cells, 3.15 kBq/2×10^6), the “expression of CD117, sca-1 and lineage markers” value is on record as “at similar levels to non-labeled controls”. The live cell number result in the data set on BM cells [2] (BM cells labeled at 8.14 kBq/10^6 cells) was “slight proliferation after day 4”; in the data set on BM cells [2] (BM cells labeled at 28.12 kBq/10^6 cells), “slightly decreased in number”. Also, the “suppression of the proliferation” value in the data set on BM cells [2] (BM cells, lower labeling dose (8.14 kBq/10^6 cells), vs non-labeled control) is recorded as “approximately 50%”. Further, the “production of IFNγ and IL-2” value with CTLs [3] was “did not negatively affect”. Also, the “upregulation of CD69, CD25 and CD44 markers” value in the data set with CTLs [3] (labeled vs non labeled CTLs) is on record as “at the similar levels”. In addition, the “proliferation and contraction of labeled CTLs” value with CTLs [4] is reported as “similarly to the non-labeled controls”.

As to `c1cc(CN2CCCNCCNCCCNCC2)ccc1CN1CCCNCCNCCCNCC1` [plerixafor], the “migration of labeled cells to the BM” value at CXCR4 is listed as “significantly inhibited”.
